Test results as given in US5912259A, “Method for treating and preventing neurodegenerative disorders by administering a thiazolidinone” (Warner-Lambert Company, priority 1998, dated 1999).

Key:
E-selectin = test: Cell-surface expression of E-selectin; format: cell-based
[1] = Systemic exposure in rats; conditions: rat, in vivo, 10 mg/kg
Protocol: As noted above, the thiazolidinone is additionally well-suited to treating elderly patients because of its long duration of action and its substantial lack of undesirable side effects. Toxicologic properties of the thiazolidinone were evaluated in single-dose oral and intravenous (IV) studies in mice and rats and multidose oral studies in rats and dogs. The thiazolidinone was tested in dogs and monkeys in escalating-dose oral toxicity to determine the most sensitive nonrodent species. […] The initial 13-week dog study was repeated to evaluate the reproducibility of the perivascular effects. Dose range-finding studies were performed in pregnant rats and rabbits, and genotoxic potential was assessed in vitro and in vivo. […] Based on exposure at the no-effect dose in definitive studies, the rat appears to be the most sensitive species followed by the dog and the monkey, albeit with minor differences in exposure between the species.

iNOS, BV-2 microglia = test: iNOS expression in LPS-activated BV-2 microglia (Western blot); format: cell-based
Protocol: BV-2 microglia were grown in 6-well tissue culture plates in DMEM/F12 media supplemented with 10% fetal calf serum. Prior to activation, cells were given fresh media containing various amounts of thiazolidinone. One hour after drug treatment, microglia were activated with lipopolysaccharide (LPS, 4 μg/mL) and placed in an incubator at 37° C. in an atmosphere containing 5% CO2. After 16 hours, cultures were evaluated for inducible nitric oxide synthase (iNOS) activity and expression. iNOS activity was determined using the Griess reaction. Cell-free culture media was mixed with an equal volume of Griess reagent (one volume of 1.0% sulfanilamide in 5% phosphoric acid mixed with one volume of 0.1% naphthylenediamine dihydrochloride in water) and incubated for 5 minutes at room temperature. Absorbance was measured at 560 nm and the concentration within a sample was determined using sodium nitrite as standard. iNOS expression was evaluated by extracting cellular protein and performing Western blot analysis using a monoclonal antibody specific for iNOS.

In the case of `CC(C)(C)c1cc(/C=C2\SC(N)=NC2=O)cc(C(C)(C)C)c1O` [CI-1004, (Z)-5-[[3,5-bis(1,1-dimethylethyl)-4-hydroxyphenyl]methylene]-2-imino-4-thiazolidinone methanesulfonate], the “cell-surface expression of E-selectin” value (E-selectin) is reported as “blocks”, the “Cmax and AUC relative to male rats at the same dose” value [1] is reported as “approximately twice those in male rats at the same dose” and the Cmax ([1]; po) is reported as 970 ng/mL. The AUC(0-t) at 24 h ([1]; po, male rats) was 16500 ng·h/mL and the iNOS protein expression (iNOS, BV-2 microglia) was “decrease in protein expression”.
